The compounds below were run on HCV 1b-377-neo replicon cells (assay: HCV replicon assay, HCV 1b-377-neo replicon cells (1b FRET)). Details: HCV 1b-377-neo replicon cells; HCV 1b genotype.
Format: cell-based, Hepatitis C virus genotype 1b
Procedure, shortened: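 Compounds tested in HCV genotype 1b-377-neo replicon cells with a FRET read-out. Cells resistant to a reference NS5A inhibitor through a Y2065H NS5A mutation were run alongside wild-type cells.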

| SMILES | EC50 range against HCV 1b (Table 2, Range) |
| --- | --- |
| COC(=O)N[C@H](C(=O)N1CCC[C@H]1c1ncc(-c2ccc(-c3ccc(-c4cnc([C@@H]5CCCN5C(=O)[C@@H](NC(=O)OC)C(C)C)[nH]4)cc3C(N)=O)cc2)[nH]1)C(C)C [Example M118, methyl ((1S)-1-(((2S)-2-(5-(2′-carbamoyl-4′-(2-((2S)-1-((2S)-2-((methoxycarbonyl)amino)-3-methylbutanoyl)-2-pyrrolidinyl)-1H-imidazol-5-yl)-4-biphenylyl)-1H-imidazol-2-yl)-1-pyrrolidinyl)carbonyl)-2-methylpropyl)carbamate] | >A |

Same assay, conditions: HCV 1b-377-neo replicon cells; HCV 1b genotype; read-out: EC50 range against HCV 1b (Table 2, Range)

| SMILES | EC50 |
| --- | --- |
| O=C(C(c1ccccc1)N1CC[C@H](F)C1)N1CCC[C@H]1c1ncc(-c2ccc(-c3ccc(-c4cnc([C@@H]5CCCN5C(=O)C(c5ccccc5)N5CC[C@H](F)C5)[nH]4)cc3)cc2)[nH]1 (stereo partly drawn) [Example 19, 5,5′-(4,4′-biphenyldiyl)bis(2-((2S)-1-(((3S)-3-fluoro-1-pyrrolidinyl)(phenyl)acetyl)-2-pyrrolidinyl)-1H-imidazole)] | 0.001 to 0.999 nM |

Same assay, conditions: Hepatitis C virus, HCV 1b-377-neo replicon cells; HCV 1b genotype; read-out: EC50 range against HCV 1b (Table 2, Range)

| SMILES | EC50 |
| --- | --- |
| CN(C)[C@@H](C(=O)N1CCC[C@H]1c1ncc(-c2ccc(-c3ccc(-c4cnc([C@@H]5CCCN5C(=O)C5(C(F)(F)F)CC5)[nH]4)cc3)cc2)[nH]1)c1ccccc1 [Example 94-30, (1R)-N,N-dimethyl-2-oxo-1-phenyl-2-((2S)-2-(5-(4′-(2-((2S)-1-((1-(trifluoromethyl)cyclopropyl)carbonyl)-2-pyrrolidinyl)-1H-imidazol-5-yl)-4-biphenylyl)-1H-imidazol-2-yl)-1-pyrrolidinyl)ethanamine] | 0.001 to 0.999 nM |
| CCN(CC)[C@@H](C(=O)N1CCC[C@H]1c1ncc(-c2ccc(-c3ccc(-c4cnc([C@@H]5CCCN5C(=O)[C@H](Cc5ccc(OCc6ccccc6)cc5)NC(=O)OC)[nH]4)cc3)cc2)[nH]1)c1ccccc1 [cj-106, methyl ((1S)-1-(4-(benzyloxy)benzyl)-2-((2S)-2-(5-(4′-(2-((2S)-1-((2R)-2-(diethylamino)-2-phenylacetyl)-2-pyrrolidinyl)-1H-imidazol-5-yl)-4-biphenylyl)-1H-imidazol-2-yl)-1-pyrrolidinyl)-2-oxoethyl)carbamate] | 0.001 to 0.999 nM |
| Cc1cc(-c2cnc([C@@H]3CCCN3C(=O)[C@H](O)c3ccccc3)[nH]2)ccc1-c1ccc(-c2cnc([C@@H]3CCCN3C(=O)[C@H](O)c3ccccc3)[nH]2)cc1 [Example 125, (1R,1′R)-2,2′-((2-methyl-4,4′-biphenyldiyl)bis(1H-imidazole-5,2-diyl(2S)-2,1-pyrrolidinediyl))bis(2-oxo-1-phenylethanol)] | 0.001 to 0.999 nM |
| CCN(CC)[C@@H](C(=O)N1CCC[C@H]1c1ncc(-c2ccc(-c3ccc(-c4cnc([C@@H]5CCCN5C(=O)[C@@H](C(C)C)N(CC)CC)[nH]4)cc3)cc2)[nH]1)c1ccccc1 [Example M45, (2R)-1-((2S)-2-(5-(4′-(2-((2S)-1-((2R)-2-(diethylamino)-2-phenylacetyl)-2-pyrrolidinyl)-1H-imidazol-5-yl)-4-biphenylyl)-1H-imidazol-2-yl)-1-pyrrolidinyl)-N,N-diethyl-3-methyl-1-oxo-2-butanamine] | 1 to 99 nM |
| CN(C)[C@@H](C(=O)N1CCC[C@H]1c1ncc(-c2cnc(-c3ncc(-c4cnc([C@@H]5CCCN5C(=O)[C@@H](c5ccccc5)N(C)C)[nH]4)cn3)nc2)[nH]1)c1ccccc1 [Example 153c-3, (1R,1′R)-2,2′-(2,2′-bipyrimidine-5,5′-diylbis(1H-imidazole-5,2-diyl(2S)-2,1-pyrrolidinediyl))bis(N,N-dimethyl-2-oxo-1-phenylethanamine)] | 1000 to 10000 nM |
| CCN(CC)[C@@H](C(=O)N1CCC[C@H]1c1ncc(-c2ccc(-c3ccc(-c4cnc([C@@H]5CCCN5C(=O)c5ncco5)[nH]4)cc3)cc2)[nH]1)c1ccccc1 [Example M37, (1R)-N,N-diethyl-2-((2S)-2-(5-(4′-(2-((2S)-1-(1,3-oxazol-2-ylcarbonyl)-2-pyrrolidinyl)-1H-imidazol-5-yl)-4-biphenylyl)-1H-imidazol-2-yl)-1-pyrrolidinyl)-2-oxo-1-phenylethanamine] | 1 to 99 nM |
| CCN(CC)[C@@H](C(=O)N1C[C@@H](F)C[C@H]1c1ncc(-c2ccc(-c3ccc(-c4cnc([C@@H]5C[C@H](F)CN5C(=O)[C@H](C)NC(=O)OC)[nH]4)cc3)cc2)[nH]1)c1ccccc1 [JG-14, methyl ((1S)-2-((2S,4S)-2-(5-(4′-(2-((2S,4S)-1-((2R)-2-(diethylamino)-2-phenylacetyl)-4-fluoro-2-pyrrolidinyl)-1H-imidazol-5-yl)-4-biphenylyl)-1H-imidazol-2-yl)-4-fluoro-1-pyrrolidinyl)-1-methyl-2-oxoethyl)carbamate] | 0.001 to 0.999 nM |
| CN(C)[C@@H](C(=O)N1CCC[C@H]1c1ncc(-c2ccc(-c3ccc(-c4cnc([C@@H]5CCCN5C(=O)C5CN(C(=O)OC(C)(C)C)C5)[nH]4)cc3)cc2)[nH]1)c1ccccc1 [Example 94-25, tert-butyl 3-(((2S)-2-(5-(4′-(2-((2S)-1-((2R)-2-(dimethylamino)-2-phenylacetyl)-2-pyrrolidinyl)-1H-imidazol-5-yl)-4-biphenylyl)-1H-imidazol-2-yl)-1-pyrrolidinyl)carbonyl)-1-azetidinecarboxylate] | 0.001 to 0.999 nM |
| COC(=O)N[C@H](C(=O)N1CCC[C@H]1c1ncc(-c2ccc(-c3ccc(-c4cnc([C@@H]5CCCN5C(=O)[C@H](NC(=O)OC)c5ccccc5)[nH]4)cc3)cc2)[nH]1)C(C)C [Example M80, methyl ((1S)-1-(((2S)-2-(5-(4′-(2-((2S)-1-((2R)-2-((methoxycarbonyl)amino)-2-phenylacetyl)-2-pyrrolidinyl)-1H-imidazol-5-yl)-4-biphenylyl)-1H-imidazol-2-yl)-1-pyrrolidinyl)carbonyl)-2-methylpropyl)carbamate] | 1 to 99 nM |
| COC(=O)N[C@@H](C)C(=O)N1CCC[C@H]1c1ncc(-c2ccc(-c3ccc(-c4cnc([C@@H]5CCCN5C(=O)[C@@H](NC(=O)OC)C(C)(C)C)[nH]4)cc3)cc2)[nH]1 [Example M95, methyl ((1S)-1-(((2S)-2-(5-(4′-(2-((2S)-1-(N-(methoxycarbonyl)-L-alanyl)-2-pyrrolidinyl)-1H-imidazol-5-yl)-4-biphenylyl)-1H-imidazol-2-yl)-1-pyrrolidinyl)carbonyl)-2,2-dimethylpropyl)carbamate] | 1 to 99 nM |
| COC(=O)N[C@@H](C(=O)N1CCC[C@H]1c1ncc(-c2ccc(-c3ccc(-c4cnc([C@@H]5CCCN5C(=O)CNC(=O)c5ccccc5)[nH]4)cc3)cc2)[nH]1)c1ccccc1 [Example 84-7, methyl ((1R)-2-((2S)-2-(5-(4′-(2-((2S)-1-(N-benzoylglycyl)-2-pyrrolidinyl)-1H-imidazol-5-yl)-4-biphenylyl)-1H-imidazol-2-yl)-1-pyrrolidinyl)-2-oxo-1-phenylethyl)carbamate] | 1 to 99 nM |
| COC(=O)N[C@H](C(=O)N1C[C@@H](F)C[C@H]1c1ncc(-c2ccc(-c3ccc(-c4cnc([C@@H]5C[C@H](F)CN5C(=O)[C@@H](NC(=O)OC)C(C)C)[nH]4)cc3)cc2)[nH]1)C(C)C [JG-10, methyl ((1S)-1-(((2S,4S)-4-fluoro-2-(5-(4′-(2-((2S,4S)-4-fluoro-1-((2S)-2-((methoxycarbonyl)amino)-3-methylbutanoyl)-2-pyrrolidinyl)-1H-imidazol-5-yl)-4-biphenylyl)-1H-imidazol-2-yl)-1-pyrrolidinyl)carbonyl)-2-methylpropyl)carbamate] | 1 to 99 nM |
